Results as given in ChEMBL document CHEMBL1201862, “PubChem BioAssay data set” (2004).
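Step 1: Grow cells in 96-well plates. Step 2: Expose to compound for 48 hours at 5 concentrations. Step 3: Interpolate endpoints linearly; if unreached, use highest concentration. GI50 is the concentration that inhibits growth by half.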 Active and inactive are the calls of the source. No stated cut-off is given here; in the data, active = GI50 up to about 1.1 µM and inactive = higher.

What was measured:
Experiment in all cases: NCI tumour cell line growth inhibition, 48 h
Malme-3M = tested on: Malme-3M
HOP-92 = tested on: HOP-92
TK-10 = tested on: TK-10
UACC-257 = tested on: UACC-257
SW-620 = tested on: SW-620
SK-MEL-2 = tested on: SK-MEL-2
RPMI-8226 = tested on: RPMI-8226
HCC 2998 = tested on: HCC 2998
MOLT-4 = tested on: MOLT-4
T47D = tested on: T47D
A549 = tested on: A549
CAKI-1 = tested on: CAKI-1
DU-145 = tested on: DU-145
MDA-MB-231 = tested on: MDA-MB-231
UACC-62 = tested on: UACC-62
PC-3 = tested on: PC-3
HL-60 = tested on: HL-60
786-0 = tested on: 786-0
BT-549 = tested on: BT-549
EKVX = tested on: EKVX
SNB-75 = tested on: SNB-75
HOP-62 = tested on: HOP-62
SF-295 = tested on: SF-295
Hs-578T = tested on: Hs-578T
SK-MEL-5 = tested on: SK-MEL-5
IGROV-1 = tested on: IGROV-1
SNB-19 = tested on: SNB-19
NCI-H522 = tested on: NCI-H522
LOX IMVI = tested on: LOX IMVI
COLO 205 = tested on: COLO 205
HCT-15 = tested on: HCT-15
OVCAR-3 = tested on: OVCAR-3
MDA-N = tested on: MDA-N
HCT-116 = tested on: HCT-116
NCI-H460 = tested on: NCI-H460
SK-MEL-28 = tested on: SK-MEL-28
RXF 393 = tested on: RXF 393
CCRF-CEM = tested on: CCRF-CEM
OVCAR-4 = tested on: OVCAR-4
M14 = tested on: M14
KM12 = tested on: KM12
NCI-H23 = tested on: NCI-H23
K562 = tested on: K562
U-251 = tested on: U-251
NCI-H226 = tested on: NCI-H226
OVCAR-8 = tested on: OVCAR-8
ACHN = tested on: ACHN
SF-268 = tested on: SF-268
SN12C = tested on: SN12C
OVCAR-5 = tested on: OVCAR-5
NCI/ADR-RES = tested on: NCI/ADR-RES
SF-539 = tested on: SF-539
MCF7 = tested on: MCF7
SK-OV-3 = tested on: SK-OV-3
A498 = tested on: A498
MDA-MB-435 = tested on: MDA-MB-435
HT-29 = tested on: HT-29
SR = tested on: SR
UO-31 = tested on: UO-31

Structure (SMILES): CC(C)Cn1cnnc1NS(=O)(=O)c1cc(C(=O)NN)c(Cl)cc1S
- GI50 (Malme-3M): > 10 µM (inactive)
- GI50 (HOP-92): > 10 µM (inactive)
- GI50 (TK-10): > 10 µM (inactive)
- GI50 (UACC-257): > 10 µM (inactive)
- GI50 (SW-620): > 10 µM (inactive)
- GI50 (SK-MEL-2): > 10 µM (inactive)
- GI50 (RPMI-8226): > 10 µM (inactive)
- GI50 (HCC 2998): > 10 µM (inactive)
- GI50 (MOLT-4): > 10 µM (inactive)
- GI50 (T47D): > 10 µM (inactive)
- GI50 (A549): > 10 µM (inactive)
- GI50 (CAKI-1): > 10 µM (inactive)
- GI50 (DU-145): > 10 µM (inactive)
- GI50 (MDA-MB-231): > 10 µM (inactive)
- GI50 (UACC-62): > 10 µM (inactive)
- GI50 (PC-3): > 10 µM (inactive)
- GI50 (HL-60): > 10 µM (inactive)
- GI50 (786-0): > 10 µM (inactive)
- GI50 (BT-549): > 10 µM (inactive)
- GI50 (EKVX): > 10 µM (inactive)
- GI50 (SNB-75): > 10 µM (inactive)
- GI50 (HOP-62): > 10 µM (inactive)
- GI50 (SF-295): > 10 µM (inactive)
- GI50 (Hs-578T): > 10 µM (inactive)
- GI50 (SK-MEL-5): > 10 µM (inactive)
- GI50 (IGROV-1): > 10 µM (inactive)
- GI50 (SNB-19): > 10 µM (inactive)
- GI50 (NCI-H522): > 10 µM (inactive)
- GI50 (LOX IMVI): > 10 µM (inactive)
- GI50 (COLO 205): > 10 µM (inactive)
- GI50 (HCT-15): > 10 µM
- GI50 (OVCAR-3): > 10 µM (inactive)
- GI50 (MDA-N): > 10 µM (inactive)
- GI50 (HCT-116): > 10 µM (inactive)
- GI50 (NCI-H460): > 10 µM (inactive)
- GI50 (SK-MEL-28): > 10 µM (inactive)
- GI50 (RXF 393): > 10 µM (inactive)
- GI50 (CCRF-CEM): > 10 µM (inactive)
- GI50 (OVCAR-4): > 10 µM (inactive)
- GI50 (M14): > 10 µM (inactive)
- GI50 (KM12): > 10 µM (inactive)
- GI50 (NCI-H23): > 10 µM (inactive)
- GI50 (K562): > 10 µM (inactive)
- GI50 (U-251): > 10 µM (inactive)
- GI50 (NCI-H226): > 10 µM (inactive)
- GI50 (OVCAR-8): > 10 µM (inactive)
- GI50 (ACHN): > 10 µM (inactive)
- GI50 (SF-268): > 10 µM (inactive)
- GI50 (SN12C): > 10 µM (inactive)
- GI50 (OVCAR-5): > 10 µM (inactive)
- GI50 (NCI/ADR-RES): > 10 µM (inactive)
- GI50 (SF-539): > 10 µM (inactive)
- GI50 (MCF7): > 10 µM (inactive)
- GI50 (SK-OV-3): > 10 µM (inactive)
- GI50 (A498): > 10 µM (inactive)
- GI50 (MDA-MB-435): > 10 µM (inactive)
- GI50 (HT-29): > 10 µM (inactive)

Structure (SMILES): COc1ccc2c(c1)CN1C(=N2)CSC1c1cccc(Br)c1 (configuration not stated)
- GI50 (Malme-3M): 60.1 µM (inactive)
- GI50 (HOP-92): 8.61 µM (inactive)
- GI50 (TK-10): 59.8 µM (inactive)
- GI50 (SR): 5.33 µM (inactive)
- GI50 (UACC-257): 20.3 µM (inactive)
- GI50 (SW-620): 15.8 µM (inactive)
- GI50 (SK-MEL-2): 24.2 µM (inactive)
- GI50 (RPMI-8226): 6.44 µM (inactive)
- GI50 (HCC 2998): 14.8 µM (inactive)
- GI50 (MOLT-4): 6.82 µM (inactive)
- GI50 (T47D): 52.7 µM (inactive)
- GI50 (A549): 30.6 µM (inactive)
- GI50 (CAKI-1): 16.3 µM (inactive)
- GI50 (MDA-MB-231): > 100 µM (inactive)
- GI50 (UACC-62): 17.8 µM (inactive)
- GI50 (PC-3): 17.7 µM (inactive)
- GI50 (HL-60): 3.58 µM (inactive)
- GI50 (786-0): 17.8 µM (inactive)
- GI50 (BT-549): 26.2 µM (inactive)
- GI50 (EKVX): 22.1 µM (inactive)
- GI50 (SNB-75): 14.9 µM (inactive)
- GI50 (HOP-62): 46.8 µM (inactive)
- GI50 (SF-295): 30.5 µM (inactive)
- GI50 (Hs-578T): 53.6 µM (inactive)
- GI50 (SK-MEL-5): 5.71 µM (inactive)
- GI50 (IGROV-1): 43.9 µM (inactive)
- GI50 (SNB-19): 47.3 µM (inactive)
- GI50 (NCI-H522): 22.6 µM (inactive)
- GI50 (LOX IMVI): 23.9 µM (inactive)
- GI50 (COLO 205): 31.7 µM (inactive)
- GI50 (HCT-15): 11 µM
- GI50 (MDA-N): 4.1 µM (inactive)
- GI50 (HCT-116): 19 µM (inactive)
- GI50 (NCI-H460): 30.1 µM (inactive)
- GI50 (SK-MEL-28): 11.9 µM (inactive)
- GI50 (RXF 393): 19.9 µM (inactive)
- GI50 (OVCAR-4): 36.9 µM (inactive)
- GI50 (M14): 52.1 µM (inactive)
- GI50 (KM12): 19.1 µM (inactive)
- GI50 (NCI-H23): 17.7 µM (inactive)
- GI50 (K562): 5.89 µM (inactive)
- GI50 (U-251): 26.5 µM (inactive)
- GI50 (NCI-H226): 4.86 µM (inactive)
- GI50 (OVCAR-8): 69.8 µM (inactive)
- GI50 (UO-31): 17.5 µM (inactive)
- GI50 (ACHN): 19.8 µM (inactive)
- GI50 (SF-268): 52.8 µM (inactive)
- GI50 (SN12C): 20.4 µM (inactive)
- GI50 (OVCAR-5): > 100 µM (inactive)
- GI50 (NCI/ADR-RES): 48.8 µM (inactive)
- GI50 (SF-539): 15.4 µM (inactive)
- GI50 (MCF7): 10.6 µM (inactive)
- GI50 (SK-OV-3): > 100 µM (inactive)
- GI50 (MDA-MB-435): 6.15 µM (inactive)
- GI50 (HT-29): 20 µM (inactive)

Structure (SMILES): CCOC(=O)/C(C(=O)Nc1cccc(Cl)c1)=C(/N)N1CCCC1
- GI50 (Malme-3M): > 100 µM (inactive)
- GI50 (TK-10): > 100 µM (inactive)
- GI50 (UACC-257): > 100 µM (inactive)
- GI50 (SW-620): > 100 µM (inactive)
- GI50 (SK-MEL-2): > 100 µM (inactive)
- GI50 (RPMI-8226): > 100 µM (inactive)
- GI50 (HCC 2998): > 100 µM (inactive)
- GI50 (MOLT-4): > 100 µM (inactive)
- GI50 (T47D): > 100 µM (inactive)
- GI50 (A549): > 100 µM (inactive)
- GI50 (CAKI-1): > 100 µM (inactive)
- GI50 (DU-145): > 100 µM (inactive)
- GI50 (MDA-MB-231): > 100 µM (inactive)
- GI50 (UACC-62): > 100 µM (inactive)
- GI50 (PC-3): > 100 µM (inactive)
- GI50 (HL-60): > 100 µM (inactive)
- GI50 (786-0): > 100 µM (inactive)
- GI50 (BT-549): > 100 µM (inactive)
- GI50 (EKVX): > 100 µM (inactive)
- GI50 (SNB-75): > 100 µM (inactive)
- GI50 (HOP-62): > 100 µM (inactive)
- GI50 (SF-295): > 100 µM (inactive)
- GI50 (Hs-578T): > 100 µM (inactive)
- GI50 (IGROV-1): > 100 µM (inactive)
- GI50 (SNB-19): > 100 µM (inactive)
- GI50 (NCI-H522): > 100 µM (inactive)
- GI50 (LOX IMVI): > 100 µM (inactive)
- GI50 (COLO 205): > 100 µM (inactive)
- GI50 (HCT-15): > 100 µM
- GI50 (OVCAR-3): > 100 µM (inactive)
- GI50 (MDA-N): > 100 µM (inactive)
- GI50 (HCT-116): > 100 µM (inactive)
- GI50 (NCI-H460): > 100 µM (inactive)
- GI50 (SK-MEL-28): > 100 µM (inactive)
- GI50 (RXF 393): > 100 µM (inactive)
- GI50 (CCRF-CEM): > 100 µM (inactive)
- GI50 (OVCAR-4): > 100 µM (inactive)
- GI50 (M14): > 100 µM (inactive)
- GI50 (KM12): > 100 µM (inactive)
- GI50 (NCI-H23): > 100 µM (inactive)
- GI50 (K562): > 100 µM (inactive)
- GI50 (U-251): > 100 µM (inactive)
- GI50 (NCI-H226): > 100 µM (inactive)
- GI50 (OVCAR-8): > 100 µM (inactive)
- GI50 (ACHN): > 100 µM (inactive)
- GI50 (SF-268): > 100 µM (inactive)
- GI50 (SN12C): > 100 µM (inactive)
- GI50 (OVCAR-5): > 100 µM (inactive)
- GI50 (NCI/ADR-RES): > 100 µM (inactive)
- GI50 (SF-539): > 100 µM (inactive)
- GI50 (MCF7): > 100 µM (inactive)
- GI50 (SK-OV-3): > 100 µM (inactive)
- GI50 (A498): > 100 µM (inactive)
- GI50 (MDA-MB-435): > 100 µM (inactive)
- GI50 (HT-29): > 100 µM (inactive)
